Source: patent publication US20250092001A1, “NOVEL EXCITATORY AMINO ACID GLUTAMATE TRANSPORT MODULATORS AND METHODS USING THE SAME” (Drexel University, priority 2022, published 2025)
Like-named read-outs stand apart in the source and are kept apart here.

Tests used:
Assay type in all cases: in vivo, rat
[1] = Pharmacokinetics of GT467 and GT511 in rats, plasma and brain (IV, IP, PO); conditions: for AUC0-t: 0 to 24 hrs
Description: Pharmacokinetics (PK) study for GT951 was conducted at Melior Discovery Services (Exton, PA). Fifteen male CD-1 mice 23-50 g was used for the study and the mice were housed 3 per cage. PK studies for GT467 and GT511 were conducted at Piramal Pharma solutions under approved protocols (Pune, India). One hundred and sixty-eight male Wistar rats were used for the study and housed 4 per cage. All animals were maintained on a standard 12 h light cycle and given free access to water and standard rodent chow. Food and water were available ad libitum. Animals were not fasted for any portion of the study and animals were acclimated to the animal care facility for seven days prior to the start of the experiment. The holding room and procedure room temperature was 21-23° C. and humidity was at 40-45% during the experiment (within the normal range of the care facility). All procedures were completed according to Institutional Animal Care and Use Committee (IACUC) approved protocols for housing and for PK studies.
Rats were dosed with the drug and blood and brain samples were collected at 0.5, 1, 2, 4, 8 and 24 h time points. Blood was collected via the sub-lingual vein under anesthesia into tubes containing Na2EDTA as an anticoagulant. Plasma fraction was separated by centrifuging the samples at 10,000 rpm for 5 min and the plasma was transferred to a cryo tube and stored at −80 C. Animals were euthanized and the brain was rapidly removed on ice and weighed. Brain was homogenized in Milli Q water and the homogenate was stored at −80 C until further use. Bioanalysis of the samples was performed using the SCIEX QTRAP 5500 LCMS/MS system with Phenomenex synergy C18 column and carbamazepine as internal standard. A methanol extraction procedure was used to precipitate the proteins in the sample. In addition to the internal standards, drug free plasma and brain samples were prepared for calibration and quantification standards. All samples were within the detectable range of the standard curves. 50 μl of the sample was added to 200 μl of the working solution of the internal standard and centrifuged for 5 min at 10,000 rpm. 60 μl of the supernatant was added to 140 μl of water and mixed well prior to transferring them for quantitative analysis on LCMS.
Specifically, rats were administered with GT467 or GT511 intraperitoneally (IP), intravenously (IV) or orally (PO). The concentration of the administered compounds measured at various timepoints in the plasma are depicted in FIGS. 4A and 4B, the concentrations of the administered compounds measured at various timepoints in the brain are depicted in FIGS. 5A and 5B.
Furthermore, pharmacokinetic parameters such as the peak concentration (Cmax), the time to reach the peak concentration (Tmax), the area under curve from time 0 to T (i.e., 24 hrs) (AUC0-t), the area under curve from time 0 to infinite (AUC0-∞), the half-life (t1/2), the oral clearance (CL/F), the volume of distribution of drug observed (Vz_F_obs), and the percentage of bioavailability (% Bioavailability) were also measured or calculated.

PD rats = assay: Elevated plus maze (EPM); conditions: male PD rats; 4 mg/kg; 10 min post treatment
Description: Referring to FIGS. 11-13, in the elevated plus maze test, male PD rats were treated with either saline or GTS467 (4 mg/kg). 10 min post treatment, the rats were placed in the middle of the elevated plus maze (EPM). Time spent in closed and open arms were recorded for 5 min. Frequency of entries in open and close arms was recorded.

[2] = system: PD rats (unilaterally lesioned rodent model of PD); assay: 5-Choice Serial Reaction Time Task (5CSRTT); conditions: compared to saline
Excerpt: FIG. 12 lists the training schedule for 5CSRTT (5-Choice Serial Reaction Time Task) assay with criteria for success, in accordance with some embodiments.
FIG. 13: Schematic representation of the 5CSRTT assay, in accordance with some embodiments. Rats were trained to receive food reward for a correct nose poke response to a signal light (correct trial shown in arrow connecting 1 and 3). Incorrect trials (the arrows connecting 2/3 to 1) or omissions (the arrow connecting 4 to other boxes) results in time out indicated by darkness with no Cue lights. Trial resets with variable intertrial intervals. Nose pokes made during inter trial interval (ITI) are recorded as premature responses (PMR) that codes for impulsive behavior

[3] = male, Wistar, rat plasma, IP 10 mg/kg
[4] = male, Wistar, rat plasma, IV 5 mg/kg
[5] = male, Wistar, rat plasma, PO 10 mg/kg

In the case of `COc1ccc(NC(=O)C(=O)NCC(c2ccccc2)N2CCN(C)CC2)cc1` (stereo not shown) [GT467, N1-(4-methoxyphenyl)-N2-(2-(4-methylpiperazin-1-yl)-2-phenylethyl)oxalamide], the AUC(0-inf) [1, 3] is reported as 0.556 µg·h/mL, the Cmax [1, 3] is reported as 0.262 µg/mL and the AUC0-t ([1]; male, Wistar, rat plasma, IP 10 mg/kg, read-out: AUC0-t) is reported as 0.537 µg·h/mL. The CL/F ([1]; male, Wistar, rat plasma, IP 10 mg/kg, read-out: CL/F (converted)) was 18.1 L/h/kg, the AUC(0-inf) [1, 4] was 0.321 µg·h/mL and the Cmax [1, 4] was 0.307 µg/mL. It also gave an AUC0-t ([1]; male, Wistar, rat plasma, IV 5 mg/kg, read-out: AUC0-t) of 0.316 µg·h/mL, an AUC(0-inf) [1, 5] of 0.798 µg·h/mL and a Cmax [1, 5] of 0.204 µg/mL. For the same compound, the AUC0-t ([1]; male, Wistar, rat plasma, PO 10 mg/kg, read-out: AUC0-t) was 0.507 µg·h/mL, the CL/F ([1]; male, Wistar, rat plasma, PO 10 mg/kg, read-out: CL/F (converted)) was 17.9 L/h/kg and the “AUC0-∞” value ([1]; rat brain, IP 10 mg/kg) was 4442.19 ng·h/g. It also gave a Tmax ([1]; rat brain, IP 10 mg/kg) of 30 min, a t1/2 ([1]; rat brain, IP 10 mg/kg) of 97.2 min and an AUC0-t ([1]; rat brain, IP 10 mg/kg) of 4414.35 ng·h/g. The “AUC0-∞” value ([1]; rat brain, IV 5 mg/kg) was 2015.59 ng·h/g, the Tmax ([1]; rat brain, IV 5 mg/kg) was 30 min and the t1/2 ([1]; rat brain, IV 5 mg/kg) was 61.8 min. The AUC0-t ([1]; rat brain, IV 5 mg/kg) was 1959.70 ng·h/g, the “AUC0-∞” value ([1]; rat brain, PO 10 mg/kg) was 3080.18 ng·h/g and the Tmax ([1]; rat brain, PO 10 mg/kg) was 52.8 min. The t1/2 ([1]; rat brain, PO 10 mg/kg) was 109 min, the AUC0-t ([1]; rat brain, PO 10 mg/kg) was 2816.80 ng·h/g and the “% Bioavailability” value ([1]; rat plasma, IP 10 mg/kg) was 85.03%. The Tmax ([1]; rat plasma, IP 10 mg/kg) was 30 min, the Vz_F_obs ([1]; rat plasma, IP 10 mg/kg) was 26.470969 L/kg and the t1/2 ([1]; rat plasma, IP 10 mg/kg) was 60.96 min. For the same compound, the CL/F ([1]; rat plasma, IV 5 mg/kg) was 16.390725 L/h/kg, the Tmax ([1]; rat plasma, IV 5 mg/kg) was 30 min and the Vz_F_obs ([1]; rat plasma, IV 5 mg/kg) was 16.170403 L/kg. The t1/2 ([1]; rat plasma, IV 5 mg/kg) was 39.1 min, the “% Bioavailability” value ([1]; rat plasma, PO 10 mg/kg) was 80.34% and the Tmax ([1]; rat plasma, PO 10 mg/kg) was 52.5 min. For the same compound, the Vz_F_obs ([1]; rat plasma, PO 10 mg/kg) was 95.358274 L/kg, the t1/2 ([1]; rat plasma, PO 10 mg/kg) was 285.8 min and the “Plasma concentration and brain concentration by route of administration” value ([1]; rats, IP, IV, PO) was “high plasma concentration and brain concentration”. For the same compound, the “Anxiety (time spent in open vs. closed arm of EPM)” value (PD rats) was “did not induce anxiety”, the “Omissions (OM)” value [2] was “trend towards reducing omissions” and the “Percentage of correct choices (CR), cognitive performance” value [2] was “improves cognitive performance”. For the same compound, the “Premature responses (PMR), impulsivity” value [2] was “reduces impulsivity”.
